Test results from ChEMBL document CHEMBL1143445, “Highly cytotoxic and neurotoxic acetogenins of the Annonaceae: new putative biological targets of squamocin detected by activity-based protein profiling” (Bioorg Med Chem Lett, 2008).
Calls of active or inactive are those of the source. The calls are words filed in the database; no cut-off is given here.

What was measured:
[1] = target: COP9 signalosome complex subunit 7b (Homo sapiens) (UniProt Q9H9Q2); assay: Binding affinity to COP9 signalosome complex subunit 7b in human Jurkat cells at 10 uM after 24 hrs by 2D electrophoresis; format: cell-based
Chain of COP9 signalosome complex subunit 7b (Homo sapiens) (Q9H9Q2 whole entry, one chain of several): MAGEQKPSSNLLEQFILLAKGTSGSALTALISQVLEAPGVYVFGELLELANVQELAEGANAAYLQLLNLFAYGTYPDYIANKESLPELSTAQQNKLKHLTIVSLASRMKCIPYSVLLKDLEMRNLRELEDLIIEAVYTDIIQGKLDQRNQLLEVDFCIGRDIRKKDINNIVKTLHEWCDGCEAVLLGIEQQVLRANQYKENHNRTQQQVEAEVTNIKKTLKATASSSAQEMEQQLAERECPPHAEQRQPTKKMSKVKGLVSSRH

[2] = target: Succinate dehydrogenase [ubiquinone] flavoprotein subunit, mitochondrial (Homo sapiens) (UniProt P31040); assay: Binding affinity to flavoprotein subunit of succinate dehydrogenase in human Jurkat cells at 10 uM after 24 hrs by 2D electrophoresis; format: cell-based
Chain of Succinate dehydrogenase [ubiquinone] flavoprotein subunit, mitochondrial (Homo sapiens) (P31040 whole entry): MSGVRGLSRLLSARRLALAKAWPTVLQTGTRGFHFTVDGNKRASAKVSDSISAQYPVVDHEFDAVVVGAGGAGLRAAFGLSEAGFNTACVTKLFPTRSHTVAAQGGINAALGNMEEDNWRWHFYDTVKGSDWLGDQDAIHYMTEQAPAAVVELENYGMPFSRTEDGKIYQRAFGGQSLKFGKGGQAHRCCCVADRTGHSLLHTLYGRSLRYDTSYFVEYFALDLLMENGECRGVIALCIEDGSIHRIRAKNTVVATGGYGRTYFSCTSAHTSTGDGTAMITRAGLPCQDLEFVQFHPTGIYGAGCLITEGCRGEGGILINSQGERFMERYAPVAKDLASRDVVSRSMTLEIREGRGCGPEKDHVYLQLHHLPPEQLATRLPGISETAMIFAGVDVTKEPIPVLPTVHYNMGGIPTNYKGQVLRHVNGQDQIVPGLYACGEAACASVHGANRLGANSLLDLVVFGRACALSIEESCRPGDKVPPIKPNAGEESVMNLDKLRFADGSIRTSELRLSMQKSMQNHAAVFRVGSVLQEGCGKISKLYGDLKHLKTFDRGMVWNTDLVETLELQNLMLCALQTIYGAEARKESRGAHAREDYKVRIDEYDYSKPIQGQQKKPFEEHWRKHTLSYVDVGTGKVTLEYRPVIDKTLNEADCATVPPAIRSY

[3] = target: Protein disulfide-isomerase (Homo sapiens) (UniProt P07237); assay: Binding affinity to disulfide isomerase in human Jurkat cells at 10 uM after 24 hrs by 2D electrophoresis; format: cell-based
Chain of Protein disulfide-isomerase (Homo sapiens) (P07237 18-508 limits assumed): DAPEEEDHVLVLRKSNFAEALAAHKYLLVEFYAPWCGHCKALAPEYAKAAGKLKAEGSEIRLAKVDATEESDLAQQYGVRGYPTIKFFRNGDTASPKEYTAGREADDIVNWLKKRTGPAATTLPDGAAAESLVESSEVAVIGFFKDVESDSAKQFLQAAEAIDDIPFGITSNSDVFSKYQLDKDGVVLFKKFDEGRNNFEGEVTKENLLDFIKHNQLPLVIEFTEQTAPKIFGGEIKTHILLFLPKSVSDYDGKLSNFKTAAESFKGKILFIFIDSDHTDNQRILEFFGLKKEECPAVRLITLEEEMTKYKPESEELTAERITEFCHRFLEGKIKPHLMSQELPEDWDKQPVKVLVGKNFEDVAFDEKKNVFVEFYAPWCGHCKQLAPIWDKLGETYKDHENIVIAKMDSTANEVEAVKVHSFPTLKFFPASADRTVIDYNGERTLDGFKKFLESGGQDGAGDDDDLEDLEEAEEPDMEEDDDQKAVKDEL

[4] = Drug uptake in mitochondria of human HeLa cells assessed as intracellular localization after 6 hrs; format: ADME
[5] = target: T1, Glutathione S-transferase omega-1 (Homo sapiens) (UniProt P78417); assay: Binding affinity to glutathione transferase omega 1 in human Jurkat cells at 10 uM after 24 hrs by 2D electrophoresis; format: cell-based
T1 sequence (whole entry): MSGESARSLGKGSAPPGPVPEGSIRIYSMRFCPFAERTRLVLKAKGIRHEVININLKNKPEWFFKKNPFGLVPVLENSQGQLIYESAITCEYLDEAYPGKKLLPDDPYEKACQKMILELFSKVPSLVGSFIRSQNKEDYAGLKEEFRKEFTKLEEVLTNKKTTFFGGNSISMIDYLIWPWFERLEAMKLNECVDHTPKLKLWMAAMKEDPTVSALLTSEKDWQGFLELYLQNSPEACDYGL

Activity [1]	Activity [2]	Activity [3]	Activity [4] [%]	Activity [5]	SMILES
Active	Active	Active	71	Active	CCCCCC[C@H](CCC[C@H](O)[C@H]1CC[C@@H]([C@H]2CC[C@@H]([C@H](O)CCCCCCCCCCCC3=C[C@H](C)OC3=O)O2)O1)n1cc(CCc2ccc3c(c2)Oc2cc(O)ccc2C32OC(=O)c3ccccc32)nn1 (stereo partly specified)
			62		CCCCCC[C@H](O)CCC[C@H](O)[C@H]1CC[C@@H]([C@H]2CC[C@@H]([C@H](O)CCCCCCCCCCCn3cc(COc4ccc5c(c4)Oc4cc(O)ccc4C54OC(=O)c5ccccc54)nn3)O2)O1 (stereo partly specified)
